The compounds below were run on BaF3-FL KIT D816V or BaF3-FL KIT V560G/D816V cell line (assay: Cell-based assays of c-Kit mutant kinase activity (cell growth, ATPlite)). Conditions: at least one of the c-kit cell assays of Example 26.
Method: The c-Kit mutant D816V inhibitors were assessed using an engineered BaF3-FL KIT D816V or BaF3-FL KIT V560G/D816V cell line. The BaF3-FL KIT D816V cell lines were created by introduction of KIT mutant (D816V) full length constructs that render the cells dependent on the introduced kinase for growth. Inhibitors of c-Kit mutant D816V kinase reduce or eliminate the mediated c-kit mutant D816V kinase activation, resulting in reduced cell proliferation of the BaF3-FL Kit mutant D816V cells. This inhibition is measured by the effect of compound concentration on cell growth to assess IC50 values. BaF3-FL KIT D816V cells were seeded at 1×10^4 cells per well of a 96 well cell culture plate in 50 μl of cell culture medium of RPMI Medium 1X (Invitrogen #11875-093) supplemented with 10% FBS (Invitrogen #10438), 1% Non Essential Amino Acids(Invitrogen #11140), 1% Penicillin Streptomycin (Invitrogen #15140), 1% L-Glutamine (Invitrogen #25030-081). Compounds were dissolved in DMSO at a concentration of 5 mM and were serially diluted 1:3 for a total of eight points and added to the cells to a final maximum concentration of 10 μM in 100 μl cell culture medium (final concentration 0.2% DMSO). Cells were also treated with Dasatinib as a positive control. The cells were incubated at 37° C., 5% CO2 for three days. ATPlite Buffer (Perkin Elmer #6016739) and substrate were equilibrated to room temperature, and enzyme/substrate Recombinant Firefly Luciferase/D-Luciferin was reconstituted. The cell plates were equilibrated to room temperature for 30 minutes, then lysed by addition of 25 uL per well of the ATPlite Reagent. The plate was mixed for 5 minutes on a plate shaker to lyse the cells. The plates were read on a Tecan Safire using Luminescence protocol modified to read 0.1 s per well. The luminescence reading assesses the ATP content, which correlates directly with cell number such that the reading as a function of compound concentration is used to determine the IC50 value.
Plasmids P75635 and P75565 were engineered for mammalian cell expression. In both plasmids, full-length human v-kit Hardy-Zuckerman 4 feline sarcoma viral oncogene homolog gene (NCBI accession NM_000222, KIT, residues M1-V976) was subcloned into the pCI-Neo vector (Promega E1841). Plasmid P75635 contains the mutation of residue Aspartic acid 816 to Valine. Plasmid P75565 contains the double mutation of residues Valine 560 to Glycine and Aspartic acid 816 to Valine. The pCI-neo Mammalian Expression Vector carries the human cytomegalovirus (CMV) immediate-early enhancer/promoter region to promote constitutive expression of KIT and contains the neomycin phosphotransferase gene, a selectable marker.
It is understood that the results of these assays may vary as assay conditions are varied. Inhibition levels determined under the conditions described herein represent a relative activity for the compounds tested under the specific conditions employed. The cell based assays are likely to show variability due to the complexity of the system and the sensitivity thereof to any changes in the assay conditions. […] In some instances, the compounds were not tested in all of the assays, or assay results were not valid.

IC50, < 10 µM:
OC(c1cccnc1)c1cnc2[nH]c(-c3ccccc3)cc2c1 (centres unmarked) [P-2001, (2-phenyl-1H-pyrrolo[2,3-b]pyridin-5-yl)-(3-pyridyl)methanol]
O=C(c1cccnc1)c1cnc2[nH]c(-c3ccccc3)cc2c1 [P-2002, (2-phenyl-1H-pyrrolo[2,3-b]pyridin-5-yl)-(3-pyridyl)methanone]
O=C(Nc1cc[nH]n1)c1cnc2[nH]c(-c3ccccc3)cc2c1 [P-2004, 2-phenyl-N-(1H-pyrazol-3-yl)-1H-pyrrolo[2,3-b]pyridine-5-carboxamide]
CCOC(=O)CCNC(=O)Nc1cnc2[nH]c(-c3ccccc3)cc2c1 [P-2006]
Cc1c(-c2ccccc2)n[nH]c1C(=O)Nc1cnc2[nH]c(-c3ccccc3)cc2c1 [P-2008, 4-methyl-3-phenyl-N-(2-phenyl-1H-pyrrolo[2,3-b]pyridin-5-yl)-1H-pyrazole-5-carboxamide]
O=C(Nc1cnc2[nH]c(-c3ccccc3)cc2c1)c1cccnn1 [P-2014, N-(2-phenyl-1H-pyrrolo[2,3-b]pyridin-5-yl)pyridazine-3-carboxamide]
Cc1cccc(Cl)c1C(=O)Nc1cnc2[nH]c(-c3ccc(F)cc3)cc2c1 [P-2022, 2-chloro-N-[2-(4-fluorophenyl)-1H-pyrrolo[2,3-b]pyridin-5-yl]-6-methyl-benzamide]
CCc1n[nH]c(C(=O)Nc2cnc3[nH]c(-c4ccc(F)cc4)cc3c2)c1C [P-2028, 3-ethyl-N-[2-(4-fluorophenyl)-1H-pyrrolo[2,3-b]pyridin-5-yl]-4-methyl-1H-pyrazole-5-carboxamide]
O=C(Nc1cnc2[nH]c(-c3ccc(F)cc3)cc2c1)c1ncn[nH]1 [P-2035, N-[2-(4-fluorophenyl)-1H-pyrrolo[2,3-b]pyridin-5-yl]-1H-1,2,4-triazole-5-carboxamide]
Cc1n[nH]c(C(=O)Nc2cnc3[nH]c(-c4ccnc(N5CCOCC5)c4F)cc3c2)c1C [P-2082, N-[2-(3-fluoro-2-morpholino-4-pyridyl)-1H-pyrrolo[2,3-b]pyridin-5-yl]-3,4-dimethyl-1H-pyrazole-5-carboxamide]
Cc1n[nH]c(C(=O)Nc2cnc3[nH]c(-c4cnn(CC(C)C)c4)cc3c2)c1C [P-2083, N-[2-(1-isobutylpyrazol-4-yl)-1H-pyrrolo[2,3-b]pyridin-5-yl]-3,4-dimethyl-1H-pyrazole-5-carboxamide]
Cc1n[nH]c(C(=O)Nc2cnc3[nH]c(-c4cnn(C)c4C)cc3c2)c1C [P-2084, N-[2-(1,5-dimethylpyrazol-4-yl)-1H-pyrrolo[2,3-b]pyridin-5-yl]-3,4-dimethyl-1H-pyrazole-5-carboxamide]
Cc1n[nH]c(C(=O)Nc2cnc3[nH]c(-c4ccc(C(=O)N(C)C)cc4)cc3c2)c1C [P-2085, N-[2-[4-(dimethylcarbamoyl)phenyl]-1H-pyrrolo[2,3-b]pyridin-5-yl]-3,4-dimethyl-1H-pyrazole-5-carboxamide]
Cc1n[nH]c(C(=O)Nc2cnc3[nH]c(-c4cccc(OC(F)(F)F)c4)cc3c2)c1C [P-2086, 3,4-dimethyl-N-[2-[3-(trifluoromethoxy)phenyl]-1H-pyrrolo[2,3-b]pyridin-5-yl]-1H-pyrazole-5-carboxamide]
Cc1n[nH]c(C(=O)Nc2cnc3[nH]c(-c4cccc(C(=O)N(C)C)c4)cc3c2)c1C [P-2087, N-[2-[3-(dimethylcarbamoyl)phenyl]-1H-pyrrolo[2,3-b]pyridin-5-yl]-3,4-dimethyl-1H-pyrazole-5-carboxamide]
Cc1n[nH]c(C(=O)Nc2cnc3[nH]c(-c4cccnc4)cc3c2)c1C [P-2088, 3,4-dimethyl-N-[2-(3-pyridyl)-1H-pyrrolo[2,3-b]pyridin-5-yl]-1H-pyrazole-5-carboxamide]
Cc1n[nH]c(C(=O)Nc2cnc3[nH]c(-c4ccc(N5CCOCC5)nc4)cc3c2)c1C [P-2089, 3,4-dimethyl-N-[2-(6-morpholino-3-pyridyl)-1H-pyrrolo[2,3-b]pyridin-5-yl]-1H-pyrazole-5-carboxamide]
COc1ccc(-c2cc3cc(NC(=O)c4[nH]nc(C)c4C)cnc3[nH]2)cn1 [P-2090, N-[2-(6-methoxy-3-pyridyl)-1H-pyrrolo[2,3-b]pyridin-5-yl]-3,4-dimethyl-1H-pyrazole-5-carboxamide]
Cc1ncc(-c2cc3cc(NC(=O)c4[nH]nc(C)c4C)cnc3[nH]2)s1 [P-2091, 3,4-dimethyl-N-[2-(2-methylthiazol-5-yl)-1H-pyrrolo[2,3-b]pyridin-5-yl]-1H-pyrazole-5-carboxamide]
Cc1n[nH]c(C(=O)Nc2cnc3[nH]c(-c4ccc(C#N)cc4)cc3c2)c1C [P-2092, N-[2-(4-cyanophenyl)-1H-pyrrolo[2,3-b]pyridin-5-yl]-3,4-dimethyl-1H-pyrazole-5-carboxamide]
Cc1n[nH]c(C(=O)Nc2cnc3[nH]c(-c4ccccc4F)cc3c2)c1C [P-2093, N-[2-(2-fluorophenyl)-1H-pyrrolo[2,3-b]pyridin-5-yl]-3,4-dimethyl-1H-pyrazole-5-carboxamide]
Cc1n[nH]c(C(=O)Nc2cnc3[nH]c(-c4cccc(F)c4)cc3c2)c1C [P-2094, N-[2-(3-fluorophenyl)-1H-pyrrolo[2,3-b]pyridin-5-yl]-3,4-dimethyl-1H-pyrazole-5-carboxamide]
Cc1n[nH]c(C(=O)Nc2cnc3[nH]c(-c4cccc(Cl)c4)cc3c2)c1C [P-2095, N-[2-(3-chlorophenyl)-1H-pyrrolo[2,3-b]pyridin-5-yl]-3,4-dimethyl-1H-pyrazole-5-carboxamide]
Cc1n[nH]c(C(=O)Nc2cnc3[nH]c(-c4ccccc4Cl)cc3c2)c1C [P-2096, N-[2-(2-chlorophenyl)-1H-pyrrolo[2,3-b]pyridin-5-yl]-3,4-dimethyl-1H-pyrazole-5-carboxamide]
Cc1ccccc1-c1cc2cc(NC(=O)c3[nH]nc(C)c3C)cnc2[nH]1 [P-2097, 3,4-dimethyl-N-[2-(o-tolyl)-1H-pyrrolo[2,3-b]pyridin-5-yl]-1H-pyrazole-5-carboxamide]
COc1cccc(-c2cc3cc(NC(=O)c4[nH]nc(C)c4C)cnc3[nH]2)c1 [P-2098, N-[2-(3-methoxyphenyl)-1H-pyrrolo[2,3-b]pyridin-5-yl]-3,4-dimethyl-1H-pyrazole-5-carboxamide]
COc1ccc(-c2cc3cc(NC(=O)c4[nH]nc(C)c4C)cnc3[nH]2)cc1 [P-2099, N-[2-(4-methoxyphenyl)-1H-pyrrolo[2,3-b]pyridin-5-yl]-3,4-dimethyl-1H-pyrazole-5-carboxamide]
CC(=O)Nc1cccc(-c2cc3cc(NC(=O)c4[nH]nc(C)c4C)cnc3[nH]2)c1 [P-2100, N-[2-(3-acetamidophenyl)-1H-pyrrolo[2,3-b]pyridin-5-yl]-3,4-dimethyl-1H-pyrazole-5-carboxamide]
Cc1n[nH]c(C(=O)Nc2cnc3[nH]c(-c4ccc(C(=O)N5CCCC5)cc4)cc3c2)c1C [P-2101, 3,4-dimethyl-N-[2-[4-(pyrrolidine-1-carbonyl)phenyl]-1H-pyrrolo[2,3-b]pyridin-5-yl]-1H-pyrazole-5-carboxamide]

Reference: patent US10301280B2 (Plexxikon Inc., priority 2012, dated 2019)
